According to patent publication US20170202792A1, “METHOD FOR TREATING TAU-ASSOCIATED DISEASES” (NATIONAL TAIWAN NORMAL UNIVERSITY, priority 2016, published 2017):

How the values were obtained:
Recombinant human GSK-3β = target: T1, Recombinant human GSK-3β (Homo sapiens, UniProt P49841); experiment: GSK-3β kinase activity, ADP-Glo Kinase Assay; type: biochemical
T1 construct: purchased Promega V1991
Description: The ability of the compound (I) and SB216763 (compound (II)) for inhibiting GSK-3β activity is evaluated in the following paragraphs, wherein compound (II) is a known GSK-3β inhibitor in the art (Product No. 53442, Sigma). GSK-3β kinase activity was measured in the presence of the tested compounds (I) and (II) using ADP-Glo™ Kinase Assay system (Promega). Recombinant human GSK-3β (Product code V1991, Promega) was used as the enzyme source, and the GSK-3β substrate is derived from human muscle glycogen synthase 1 peptide ([…](pS)EDEEE) which corresponds to a region of glycogen synthase that is phosphorylated by GSK-3β. Reactions were performed at 30° C. for 30 minutes in 25 μL mixture that contained 25 μM ATP, 0.2 mg/mL GSK-3β substrate, 1 ng of GSK-3β, and serial dilutions of compound (I) or compound (II). Kinase activity data were measured as relative light units (RLU) directly correlated with the amount of ADP produced and FIG. 1 showing the analysis results.
The IC50 values of compound (I) and compound (II) were determined by using SigmaPLOT software.

[1] = test system: GSK-3β (total and p-Ser9); experiment: Western blot of total and phosphorylated GSK-3β in tauRD-DsRed SH-SY5Y cells; type: cell-based, human
Description: Western blotting analysis was applied for examining the expressions of HSPB1 and GRP78, the method was as follows: total proteins were extracted using RIPA buffer, which comprised 50 mM Tris-HCl, 150 mM NaCl, 1 mM EDTA, 1 mM EGTA, 0.1% SDS, 0.5% sodium deoxycholate, 1% Triton X-100, and a protease inhibitor cocktail (Calbiochem). […] of total proteins were separated on 10% SDS-PAGE gels and blotted onto nitrocellulose membrane which were stained (4° C., overnight) with antibodies against DsRed (1:500; Santa Cruz), HSPB1 (1:500; Santa Cruz), and GRP78 (1:200; Santa Cruz). Next, immunoreactive bands were detected using horseradish peroxidase-conjugated goat anti-mouse, goat anti-rabbit, or donkey anti-goat IgG antibodies (1:5000; GeneTex) and chemiluminescent substrate (Millipore).
The methods of cell culture and western blot analysis are similar to that described above, except that the antibodies against GSK-3β (total and p-Ser9) (1:1000; Cell Signaling), total tau (1:500; Dako), p-tau (Ser202) (1:500; AnaSpec), p-tau (Thr231 and Ser396) (1:1000; Invitrogen), [3-actin (1:5000; Millipore), or GAPDH (1:2000; MDBio) were used herein for evaluation of the expression levels thereof in the cells.

[2] = test system: mouse hippocampal primary culture cells; experiment: Mouse hippocampal primary culture under tau toxicity (WT and GFX); type: cell-based; settings: 10 nM WT and GFX; 0.1, 0.25, 0.5 μM compound (I), 12 hours
Description: The mouse hippocampal primary culture cells were isolated from the hippocampi of C57BL/6J mouse embryos at days 16-18. On days in vitro (DIV) 4 and 7, 2 μM of cytosine arabinoside was added to the culture medium for reducing the glial cell populations. On DIV 9, the cells were treated with 10 nM of Wortmannin (WT) and GF109203X (GFX) to induce tau hyperphosphorylation for mimicking an AD condition. 0, 0.1, 0.25, and 0.5 μM of compound (I) were then added to the cells at DIV 9. Cells were harvested 12 hours later for immunocytochemical staining with NeuN (for neuron) and MAP2 (for neurite morphology) antibodies.

GSK-3β = experiment: Western blot of mouse hippocampal tissue, GSK-3β; type: in vivo; settings: hyperglycemic 3×Tg-AD mice; 0.25 mg/kg i.p. daily
Description: Hyperglycemia was induced by streptozotocin (STZ) to accelerated Alzheimer's disease progression of 6-month-old male transgenic 3×Tg−AD mice. Half of the 3×Tg−AD mice (n=30) received STZ (100 mg/kg) intraperitoneal injection at days 1, 2, 8, and 9 respectively as the high blood glucose group (HBG); another half of the 3×Tg-AD mice (n=30) received sodium citrate (0.1 M) at the same time points as the normal blood glucose group (NBG). […] Both mouse body weight (BW) and blood glucose (BG) were monitored every week.
Mice were sacrificed after MWM and hippocampi were isolated for analyzing several protein expression levels by means of western blot. The protein of the hippocampi was quantified by BCA assay (Pierce), wherein 25 μg of protein was separated by SDS-PAGE and then transferred to PVDF film. Next, protein was blocked for reducing non-specific signals, and reacted with primary antibodies (GSK-3β, pS9-GSK-3β (non-activated), pT216-GSK-3β(activated), pS202Tau, pS396Tau, pT231Tau, HT7 (total Tau)), and secondary antibodies (anti-rabbit, anti-mouse IgG HRP-linked antibody; 1:10,000; Amersham Pharmacia Biotech). β-actin was used as the loading control, ECL kit was used to detect the antigen-antibody complex, and LAS-4000 (Fujifilm) was used for imaging and quantification.

[3] = test system: GFAP (astrocytes) and Iba1 (microglia); experiment: Immunohistochemical staining of GFAP and Iba1 (neuro-inflammation in hippocampus); type: in vivo, mouse; settings: 0.25 mg/kg i.p. daily 28 days
Description: Hyperglycemia was induced by streptozotocin (STZ) to accelerated Alzheimer's disease progression of 6-month-old male transgenic 3×Tg−AD mice. Half of the 3×Tg−AD mice (n=30) received STZ (100 mg/kg) intraperitoneal injection at days 1, 2, 8, and 9 respectively as the high blood glucose group (HBG); another half of the 3×Tg-AD mice (n=30) received sodium citrate (0.1 M) at the same time points as the normal blood glucose group (NBG). Then, HBG and NBG were divided into two groups respectively to give four groups such as NBG-compound (I), HBG-compound (I), NBG-DMSO, and HBG-DMSO with n=15 in each group; wherein 0.25 mg/kg of compound (I) (in 30 μL) were intraperitoneal injected into those mice of NBG-compound (I) and HBG-compound (I) groups daily since day 14 for 28 days, and 30 μL of DMSO solvent were intraperitoneal injected into those mice of NBG-DMSO and HBG-DMSO groups daily since day 14 for 28 days. Both mouse body weight (BW) and blood glucose (BG) were monitored every week.
After the brain tissue of the mice were fixed and dehydrated, the tissue was cryosectioned (30 μm). The cryosections were then washed with phosphate buffered saline (PBS) three times. After the optimal cutting temperature compound (OCT) was removed, 3% H2O2was used to remove the endogenous peroxidase, and the cryosection was blocked by the blocking solution for 1 hour to reduce non-specific antigen reactions. The primary antibodies GFAP (astrocytes) and Iba1 (microglia) were added and reacted for 12 hours, the secondary antibody (1:200 dilution in blocking solution, Vecter) was added and reacted for 1 hour, and then, the avidin-biotin complex was added and reacted for 1 hour. Finally, DAB-kit was used for coloring. All the stained sections were attached to the slides, dried, dehydrated, and mounted for imaging and quantification (Image Pro Plus) to evaluate the neuro-inflammation in mouse hippocampus. The quantification results were shown in Table 2, wherein ↑↑↑, ↓↓↓:p<0.001.

T1 sequence (P49841 whole entry): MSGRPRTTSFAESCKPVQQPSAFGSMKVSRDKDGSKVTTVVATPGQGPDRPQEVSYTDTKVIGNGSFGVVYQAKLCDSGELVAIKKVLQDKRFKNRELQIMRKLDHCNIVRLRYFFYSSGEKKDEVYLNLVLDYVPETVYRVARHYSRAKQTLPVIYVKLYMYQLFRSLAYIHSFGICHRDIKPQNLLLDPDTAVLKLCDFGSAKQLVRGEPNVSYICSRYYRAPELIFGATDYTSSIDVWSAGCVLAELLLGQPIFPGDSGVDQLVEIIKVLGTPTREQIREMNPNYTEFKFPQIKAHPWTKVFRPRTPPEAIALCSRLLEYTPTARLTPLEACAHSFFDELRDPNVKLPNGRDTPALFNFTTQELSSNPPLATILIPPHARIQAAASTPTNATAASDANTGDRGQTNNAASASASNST

In the case of `CCCCC/C=C\C/C=C\C/C=C\C/C=C\CCCC(=O)Nc1ccc(O)cc1` [compound (I), (5Z, 8Z, 11Z,14Z)-N-(4-Hydroxyphenyl)icosa-5 ,8 , 11,14-tetraen amide], the IC50 (Recombinant human GSK-3β; 25 μM ATP, 1 ng GSK-3β, 30° C., 30 minutes) is reported as 5.35 µM, the remaining activity at 0.018 µM (Recombinant human GSK-3β; concentration of compound (I) 0.018 μM, read-out: residual activity of GSK-3β) is reported as 69.6 ± 2% and the GSK-3β expression [1] is reported as “down-regulated”. The “expression level of phosphorylated GSK-3β” value [1] was “increased”, the “neuronal survival and neurite length” value [2] was “alleviate the phenomena of low neuronal survival rate and short neurite length” and the “GSK-3β inhibition in hippocampus (pT216-GSK-3β/GSK-3β, pS9-GSK-3β/GSK-3β)” value (GSK-3β) was “exerts inhibition for GSK-3β”. For the same molecule, the GFAP staining quantification ([3]; HBG 3×Tg-AD mice) was 15.63 ± 2.05↓↓↓, the Iba1 staining quantification ([3]; HBG 3×Tg-AD mice) was 29.43 ± 0.78↓↓↓ and the GFAP staining quantification ([3]; NBG 3×Tg-AD mice) was 3.33 ± 1.02. It also gave an Iba1 staining quantification ([3]; NBG 3×Tg-AD mice) of 34.25 ± 2.19.
